We go through seven molecules from publication PMC7744527, “The structure of SeviL, a GM1b/asialo-GM1 binding R-type lectin from the mussel Mytilisepta virgata” (Scientific Reports, 2020).

The target of series [1] is T1, SeviL (Mytilisepta virgata, UniProt A0A646QV53).
T1 construct: This vector directs expression of full-length SeviL carrying a thrombin-cleavable hexa-histidine tag; hexa-histidine tag (thrombin-cleavable; leaves residual GSH before the native Met) (N, cleaved yes); made in house; host or cells: E. coli BL21(DE3)
Kind of series: biochemical. It counts as binding. The procedure: (§1) Experimental details are given in Methods/Isothermal Titration Calorimetry. […] ITC experiments were repeated with the monomer mutant SeviL (Q12R/F126K). […] Errors in Kd for the native protein and monomer were determined from triplicate experiments. To produce a stronger signal and lower noise, further experiments were attempted with the concentrations of the native protein and ligand increased ten-fold. […] Different stereo views of the interaction between protein and ligand are shown in SFigure 11.
(§2) Figure 5 (A) A thermogram produced by injecting 1 mM asialo-GM1 saccharide into 50 μ M SeviL. The experiment was repeated three times, each thermogram being fitted to a one-site model (shown as a black line). Dissociation constants were calculated as weighted averages, and errors were calculated as weighted standard deviations, using the reciprocal chi-square values of each individual fit as weights.
Experiments were performed using a MicroCal iTC200 (GE) instrument. The sample of SeviL (in 50 mM phosphate buffer, pH 6.8, 0.1 M NaCl) was placed in the cell, and equilibrated at 298 K. The selected ligand was dissolved in the same buffer, and injected into the protein sample (with 20 injections of 10 μ L each), allowing the baseline to stabilise between injections. The data were analysed using the manufacturer’s software, assuming a simple single site model, to yield a Kd value and chi-square value from each experiment. […] Asialo-GM1 and GM1b were used at 1 mM concentration, each experiment being repeated three times, and errors were determined as the weighted standard deviation of these three values. Higher concentrations of protein and ligand were used in the case of these longer ligands.

For series [2], the target named is T1, SeviL. As to conditions: 52 oligosaccharides; cited from earlier work.
In another series the target is T2, SeviL (Q12R/F126K) (Mytilisepta virgata, UniProt A0A646QV53, F126K/Q12R).
T2 construct: This vector directs expression of full-length SeviL carrying a thrombin-cleavable hexa-histidine tag; hexa-histidine tag (thrombin-cleavable); made in house; host or cells: E. coli BL21(DE3)
Nature of the series: Isothermal titration calorimetry with monomer mutant SeviL (Q12R/F126K). The series is classed as binding. Conditions: 1 mM ligand titrated into 50 μM SeviL (Q12R/F126K), one-site model, triplicate. The procedure: as §1, §2
Experiments were performed using a MicroCal iTC200 (GE) instrument. […] The data were analysed using the manufacturer’s software, assuming a simple single site model, to yield a Kd value and chi-square value from each experiment. […] Asialo-GM1 and GM1b were used at 1 mM concentration, each experiment being repeated three times, and errors were determined as the weighted standard deviation of these three values. […]

Series [3] deals with the molecule itself. Kind of series: AUC; sedimentation velocity, 50,000 rpm, 293 K, 50 mM potassium phosphate pH 6.8, 0.1 M NaCl, absorbance at 280 nm, c(s)/c(M) analysis with SEDFIT; sample concentration printed as 1.0 ug/ml.
Series [4] concerns mammalian carcinoma cells expressing asialo-GM1. Details: method as in PMID 31769916. As to conditions: cited from earlier work.
The next series concerns human red cells. Details: method as in PMID 31769916. As to conditions: in the presence of calcium; cited from earlier work.
Series [5] deals with trypsinised and glutaraldehyde-fixed rabbit erythrocytes. Kind of series: Hemagglutination assay. It counts as cell-based. Conditions: 10 mM CaCl2, 0.25% Triton X-100, 1 h room temperature. The procedure:
Figure 6 Hemagglutination of red blood cells by SeviL. 20 μ L of a two-fold dilution of SeviL (initially 10 mg/mL) were serially diluted and added to the same volume of a red cell suspension containing 0.25% Triton-X100 and 10 mM calcium chloride, and incubated for 1 h at room temperature. Appearance of a dot indicates no agglutination. The number over the wells indicates the protein dilution factor. Top row: dimer SeviL, middle row: dimer SeviL (D39H), and bottom row: monomer SeviL (Q12R/F126K). Column C is a negative control with no added lectin.
Hemagglutination assay was performed in 96-well U-shape plates as described previously. 20 μ L each protein (10 μ g/ml) in TBS was mixed with 20 μ L of a 1% suspension (with TBS; v/v) of trypsinised and glutaraldehyde-fixed rabbit erythrocytes in addition to 20 μ L of TBS containing 0.25% (w/v) Triton X-100 and 10 mM CaCl2. The plate was incubated at room temperature for 1 h, and the formation of a sheet (agglutination-positive) or dot (agglutination-negative) was observed and scored against the lectin titre.

Where a chain is given by its changes, count along the chain named. Names and notes keep the numbering of the source. Where two headings read alike, the source gives them in different places.

By Kd is commonly meant the equilibrium constant for the complex coming apart. What is called stoichiometry N is the number of molecules, sites or subunits per partner or assembly.

T2 sequence (A0A646QV53 whole entry Q12R/F126K): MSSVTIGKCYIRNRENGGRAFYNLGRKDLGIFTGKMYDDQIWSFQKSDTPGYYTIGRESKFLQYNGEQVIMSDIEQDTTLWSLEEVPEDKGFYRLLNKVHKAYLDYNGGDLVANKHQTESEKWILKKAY

Molecule `OC[C@H]1O[C@@H](O[C@H]2[C@H](O)[C@@H](O)C(O)O[C@@H]2CO)[C@H](O)[C@@H](O)[C@H]1O` (mixture of isomers) [lactose] yielded a Kd on SeviL [1] of 8000 to 12000 µM.
On to `CC(=O)N[C@H]1[C@H](O[C@@H]2[C@H](O)[C@@H](O)[C@H](O[C@H]3[C@H](O)[C@@H](O)C(O)O[C@@H]3CO)O[C@@H]2CO)O[C@H](CO)[C@H](O)[C@@H]1O[C@@H]1O[C@H](CO)[C@H](O)[C@H](O)[C@H]1O` (stereo partly drawn) [asialo-GM1, Gal β (1-3)GalNAc β (1-4)Gal β (1-4)Glc], for which the “binding in glycan array” value on SeviL [2] was “bind”. The equilibrium dissociation constant (Kd) at SeviL (Q12R/F126K) is 100 µM; at SeviL [1] (1 mM ligand injected into 50 μM SeviL, 298 K, pH 6.8, one-site model, triplicate, weighted average, read-out: Kd) it was 100 µM; at SeviL [1] (protein and ligand concentrations increased ten-fold (1 mM SeviL/10 mM asialo-GM1; 0.8 mM SeviL/12 mM GM1b), model of non-interacting sites, read-out: Kd (exothermic and endothermic binding site, each)), about 100 µM.
Turning to `OC[C@H]1OC(O)[C@H](O)[C@@H](O)[C@@H]1O` (stereo partly drawn) [Glucose], the “interaction with the protein (ITC)” value at SeviL [1] (small sugar ligand) was “not seen to interact with the protein at all”.
As for `CC(=O)NC1C(O)CC(OC2C(O)C(CO)OC(OC3C(O)C(CO)OC(OC4C(O)C(CO)OC(OC5C(CO)OC(OC6C(CO)OC(O)C(O)C6O)C(O)C5O)C4O)C3NC(C)=O)C2O)(C(=O)O)OC1C(O)C(O)CO` (stereo not drawn) [SSEA-4, Neu5Ac α (2-3)Gal β (1-3)GalNAc β (1-3)Gal α (1-4)Gal β (1-4)Glc], on SeviL [2], the “binding in glycan array” value was “weak binding”.

B1: SeviL (natural protein, Mytilisepta virgata)
chain: MSSVTIGKCYIQNRENGGRAFYNLGRKDLGIFTGKMYDDQIWSFQKSDTPGYYTIGRESKFLQYNGEQVIMSDIEQDTTLWSLEEVPEDKGFYRLLNKVHKAYLDYNGGDLVANKHQTESEKWILFKAY
notes: some N-terminal residues remain after removal of the histidine tag by thrombin; also called recombinant SeviL; wild-type SeviL; source: recombinant, expressed in bacteria, purified (details in Supplementary Information); not shown: histidine tag, N-terminal, cleaved
With B1, the “stoichiometry N” value in series [3] came to 2.

B2: SeviL: recombinant 129 residue dimeric β-trefoil R-type lectin from the mussel Mytilisepta virgata (protein)
chain: B1 chain
modifications: left off: histidine tag, N-terminal, cleaved
notes: recombinant 129 residue dimeric β-trefoil R-type lectin from the mussel Mytilisepta virgata
In the case of B2, the “effect on carcinoma cells” value in series [4] is “activates apoptotic pathways, causing cell death”. Further, the hemagglutination entry in the series on human red cells is recorded as “cause hemagglutination”; in series [5] it was “can trigger hemagglutination at low concentration”.

B3: SeviL (Q12R/F126K): SeviL double mutant at the dimer interface, almost entirely monomeric, retains sugar binding (protein)
chain: B1 chain with Q12R, F126K
modifications: left off: histidine tag, N-terminal, cleaved
Consider B3, for which the hemagglutination result in series [5] was “Hemagglutination is also lost”.
